Drawing on patent publication US12624044B2, “SMARCA degraders and uses thereof” (Kymera Therapeutics, Inc., priority 2019, dated 2026), this text covers Dmax and DC50 for 16 compounds.

What all share (assay type): cell-based
The target in one assay is T1, SMARCA4 (Homo sapiens, UniProt P51532).
T1 construct: SMARCA2 and SMARCA4 protein degradation in MV4-11 cells; endogenous in cells; host or cells: MV4-11
Kind of assay: SMARCA4 Western blot MV4-11 degradation. As to conditions: 24 h; for Dmax: MV4-11, MV4-11 cells, read-out: SMARCA4 WB MV411 degradation 24 h: Average Dmax %; for DC50: MV4-11 cells, read-out: SMARCA4 WB MV411 degradation 24 h: Average external-Abs DC50. Put shortly: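 MV4-11 cells treated with compound for 24 h, lysed in RIPA with protease/phosphatase inhibitors, and SMARCA2 and SMARCA4 (BRG1) levels assessed by Western blot with β-actin loading control and LI-COR fluorescent read-out. Maximal degradation (Dmax %) after 24 h binned into letter codes.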
On the technique in general: Immunoblotting shows a protein as a band on a membrane.

Assay [1] has as its target T2, SMARCA2 (Homo sapiens, UniProt P51531). The assay is described as follows: SMARCA2 Western blot MV4-11 degradation. As to conditions: 24 h; for DC50: MV4-11 cells, read-out: SMARCA2 WB MV411 degradation 24 h: Average external-Abs DC50. The protocol: Cells were seeded into 6-well plates (MV4-11: 4×10^6 cells/well/1 ml) and 1 ml of 2× compound solution was added into the well to make the final concentration and the plates were mixed well and incubated for 24 hours (No cytotoxicity was observed). The cell were collected with media and spun at 3000 rpm for 5 minutes. The supernatant was aspirated and the well and the cells were washed with cold PBS once and combined for centrifugation again; the supernatant aspirated again. 200 ul pre-chilled RIPAlysis buffer (Boston BioProducts BP-115D) with protease/phosphatase inhibitor (Roche 05892791001/Roche 04906837001) was directly added into the tube to lyze the cells for 20 minutes on ice. The cell lysate were collected into EP tubes and spun at 13000 rpm for 20 minutes and 72 ul supernatant was transferred to a fresh EP tube containing 18 ul of 5× loading buffer (Beyotime Bio P0015) to make the loading samples. The samples were heated to 100° C. for 10 minutes and cooled to RT and microcentrifuged. 20 ul of samples were loaded onto SDS-PAGE gel (Novex, WG1402BOX) and the gel was run at 80 V for 20 minutes and 120 V for 1.5 hours. The samples were electrotransfer to a NC membrane using wet-transfer method with 250 mA for 2.5 hours. The membrane was blocked with LICOR blocking buffer (LI-COR, 927-50000) for 1 hour. The membrane was washed three times with TBST (CST #9997S), 5 minutes each. Incubation was performed with primary antibody prepared in blocking buffer with 0.1% Tween-20 (Solarbio, P8220) at 4° C. overnight (Anti-SMARCA2/BRM antibody (ab15597) 1:500; Anti-BRG1 antibody [EPR3912] (ab108318) 1:1000; Rabbit anti-Baf180 antibody [EPR15860] (Abcam, ab196022) 1:1000; mouse anti-beta-Actin (8H10D10) (CST #3700) 1:10000). The membrane was washed three times with TBST, 5 minutes each. Incubation with secondary antibody was performed for 1 hour at RT (anti-rabbit IgG (Licor, 926-32211) 1:5000; anti-mouse IgG (LI-COR, 926-68070) 1:5000). The membrane was washed three times with TBST, 5 minutes each and lastly the LiCOR was read.
The letter codes for the percentage of SMARCA degradation after 24 hours (Dmax %) include: A (>90% degradation), B (>70-90% degradation), C (50-70% degradation), and D (<50% degradation).

Assay [2] concerns the target T2, SMARCA2. Kind of assay: MSD SMARCA2 degradation in A549 cell line. As to conditions: 24 h; for Dmax: A549, A549 cells; for DC50: A549 cells, read-out: SMARCA2 MSD A549 degradation 24 h: Average external-Abs DC50. In a few lines:
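SMARCA2 remaining was measured by MSD electrochemiluminescence on RIPA lysates (anti-SMARCA2 plus SULFO-TAG anti-rabbit). Prior exposure: 24 h of A549 cells to a 10-point, 3-fold dilution series topping at 1000 nM final; Dmax % given as graded codes.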

Assay [3] concerns the target T2, SMARCA2. The assay is described as follows: MSD SMARCA2 degradation in NCI-H1299 cell line (24 h). The arrangement: HC: NCI-H1299 cells treated with DMSO; host or cells: NCI-H1299. As to conditions: for Dmax: NCI-H1299, NCI-H1299 cells; for DC50: NCI-H1299 cells, read-out: SMARCA2 MSD H1299 degradation 24 h: External Abs-DC50. In a few lines: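 SMARCA2 measured by MSD electrochemiluminescence (primary 0.3 ug/ml, secondary 1 ug/ml) on lysates from NCI-H1299 cells exposed to compounds for 24 h across nine 3-fold dilutions. Signal scaled from A2780 cells (no SMARCA2) to DMSO-treated H1299 controls, and maximal degradation after 24 h reported in letter categories.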

A value given as a limit tells only on which side of the number the result lay.

T2 sequence (P51531 whole entry): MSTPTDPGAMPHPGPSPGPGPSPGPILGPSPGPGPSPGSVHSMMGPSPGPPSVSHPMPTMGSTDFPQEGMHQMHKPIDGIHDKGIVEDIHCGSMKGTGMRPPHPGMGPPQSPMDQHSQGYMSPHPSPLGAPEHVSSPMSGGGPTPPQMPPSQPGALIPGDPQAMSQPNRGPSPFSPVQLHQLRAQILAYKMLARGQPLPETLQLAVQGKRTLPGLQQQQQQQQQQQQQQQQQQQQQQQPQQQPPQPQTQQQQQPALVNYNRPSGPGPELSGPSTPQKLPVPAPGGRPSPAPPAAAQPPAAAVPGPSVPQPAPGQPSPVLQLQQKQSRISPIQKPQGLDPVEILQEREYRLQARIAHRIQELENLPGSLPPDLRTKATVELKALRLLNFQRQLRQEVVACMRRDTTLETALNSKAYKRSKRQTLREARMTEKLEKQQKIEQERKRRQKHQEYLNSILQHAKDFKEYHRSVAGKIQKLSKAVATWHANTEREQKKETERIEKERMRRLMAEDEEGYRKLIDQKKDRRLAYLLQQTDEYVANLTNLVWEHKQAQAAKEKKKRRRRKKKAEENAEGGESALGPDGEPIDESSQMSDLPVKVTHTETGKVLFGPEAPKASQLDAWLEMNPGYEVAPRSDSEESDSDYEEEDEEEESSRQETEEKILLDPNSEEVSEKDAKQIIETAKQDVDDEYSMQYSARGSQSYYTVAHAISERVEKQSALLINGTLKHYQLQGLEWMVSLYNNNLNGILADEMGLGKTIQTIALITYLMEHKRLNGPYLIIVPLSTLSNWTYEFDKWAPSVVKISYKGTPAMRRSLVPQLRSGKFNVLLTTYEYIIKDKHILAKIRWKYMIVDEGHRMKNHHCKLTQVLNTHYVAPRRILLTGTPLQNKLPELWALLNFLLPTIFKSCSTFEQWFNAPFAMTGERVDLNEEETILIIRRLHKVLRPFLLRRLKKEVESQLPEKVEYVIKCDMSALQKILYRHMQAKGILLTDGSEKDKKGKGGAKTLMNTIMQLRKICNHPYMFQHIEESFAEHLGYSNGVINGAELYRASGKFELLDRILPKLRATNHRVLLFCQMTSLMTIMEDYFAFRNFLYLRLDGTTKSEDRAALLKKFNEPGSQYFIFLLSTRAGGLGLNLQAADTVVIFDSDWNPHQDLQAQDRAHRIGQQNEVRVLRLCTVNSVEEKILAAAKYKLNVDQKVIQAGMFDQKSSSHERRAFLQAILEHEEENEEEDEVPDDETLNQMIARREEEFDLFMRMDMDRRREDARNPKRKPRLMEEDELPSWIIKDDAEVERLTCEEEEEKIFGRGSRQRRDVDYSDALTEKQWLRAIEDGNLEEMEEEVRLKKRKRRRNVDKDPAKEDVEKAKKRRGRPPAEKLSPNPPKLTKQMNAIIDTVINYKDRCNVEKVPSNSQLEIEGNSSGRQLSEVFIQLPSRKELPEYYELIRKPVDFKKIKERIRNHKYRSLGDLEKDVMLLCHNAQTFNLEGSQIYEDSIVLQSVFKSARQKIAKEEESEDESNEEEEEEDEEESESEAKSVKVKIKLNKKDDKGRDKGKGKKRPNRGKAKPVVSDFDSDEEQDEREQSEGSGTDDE
T1 sequence (P51532 whole entry): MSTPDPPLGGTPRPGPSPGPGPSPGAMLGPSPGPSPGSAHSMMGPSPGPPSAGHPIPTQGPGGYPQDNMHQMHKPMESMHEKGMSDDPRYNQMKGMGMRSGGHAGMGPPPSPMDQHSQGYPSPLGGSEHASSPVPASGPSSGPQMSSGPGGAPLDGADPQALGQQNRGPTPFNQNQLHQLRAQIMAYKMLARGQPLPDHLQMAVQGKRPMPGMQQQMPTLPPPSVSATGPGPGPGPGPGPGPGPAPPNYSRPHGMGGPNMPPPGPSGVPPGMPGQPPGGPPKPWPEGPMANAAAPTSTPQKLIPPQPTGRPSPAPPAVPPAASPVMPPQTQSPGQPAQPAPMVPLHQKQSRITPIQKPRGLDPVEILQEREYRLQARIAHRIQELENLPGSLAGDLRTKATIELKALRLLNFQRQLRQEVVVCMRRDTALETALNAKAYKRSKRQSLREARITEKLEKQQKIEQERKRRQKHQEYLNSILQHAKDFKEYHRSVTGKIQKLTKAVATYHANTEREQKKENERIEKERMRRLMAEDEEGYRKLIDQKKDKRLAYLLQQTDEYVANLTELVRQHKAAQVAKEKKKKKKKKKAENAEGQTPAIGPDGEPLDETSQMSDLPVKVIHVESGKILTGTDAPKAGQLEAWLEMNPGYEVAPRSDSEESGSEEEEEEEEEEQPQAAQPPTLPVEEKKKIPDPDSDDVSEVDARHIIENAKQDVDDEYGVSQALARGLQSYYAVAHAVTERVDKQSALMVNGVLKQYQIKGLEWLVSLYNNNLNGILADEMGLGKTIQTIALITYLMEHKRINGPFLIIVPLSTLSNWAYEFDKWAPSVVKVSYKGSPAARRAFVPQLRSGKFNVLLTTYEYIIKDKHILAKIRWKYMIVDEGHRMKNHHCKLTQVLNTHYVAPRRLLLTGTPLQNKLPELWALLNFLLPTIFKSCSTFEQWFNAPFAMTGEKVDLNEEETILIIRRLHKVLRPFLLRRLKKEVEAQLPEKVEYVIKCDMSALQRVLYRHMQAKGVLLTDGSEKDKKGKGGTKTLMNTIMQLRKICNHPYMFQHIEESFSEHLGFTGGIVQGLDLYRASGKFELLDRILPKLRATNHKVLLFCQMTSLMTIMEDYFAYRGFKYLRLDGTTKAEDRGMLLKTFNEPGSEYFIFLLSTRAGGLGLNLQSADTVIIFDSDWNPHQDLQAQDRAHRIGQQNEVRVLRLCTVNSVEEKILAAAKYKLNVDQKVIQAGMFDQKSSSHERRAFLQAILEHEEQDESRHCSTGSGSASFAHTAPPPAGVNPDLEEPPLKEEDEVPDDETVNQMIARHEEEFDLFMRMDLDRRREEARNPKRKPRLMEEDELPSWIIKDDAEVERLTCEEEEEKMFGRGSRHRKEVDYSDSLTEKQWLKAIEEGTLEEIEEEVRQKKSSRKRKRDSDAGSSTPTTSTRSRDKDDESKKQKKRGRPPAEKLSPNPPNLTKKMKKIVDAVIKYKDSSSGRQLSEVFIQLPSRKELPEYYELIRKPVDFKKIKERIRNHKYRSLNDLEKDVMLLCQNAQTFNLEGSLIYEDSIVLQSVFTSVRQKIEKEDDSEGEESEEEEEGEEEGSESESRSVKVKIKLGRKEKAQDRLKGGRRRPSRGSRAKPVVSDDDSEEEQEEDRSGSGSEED

As a reminder, the Dmax is the largest share of the target that was removed. What is called DC50 is the concentration at which degradation of the target reaches its halfway point. As for `Cc1ncsc1-c1ccc(CNC(=O)[C@@H]2C[C@@H](O)CN2C(=O)[C@@H](NC(=O)CN2CCN([C@H]3CC[C@@H](c4cnc(N5C6CCC5CN(c5cc(-c7ccccc7O)nnc5N)C6)nc4)CC3)CC2)C(C)(C)C)cc1` (single isomer, unassigned) [I-445], the Dmax was above 90% on SMARCA4; above 90% on SMARCA2 [1] (MV4-11, MV4-11 cells, read-out: SMARCA2 WB MV411 degradation 24 h: Average Dmax %); above 90% on SMARCA2 [2]. In addition, the results for the DC50 on SMARCA4, at SMARCA2 [1] and on SMARCA2 [2] were below 100 nM, below 100 nM and 100 to 500 nM, respectively.
Regarding `Cn1c(=O)n(C2CCC(=O)NC2=O)c2ccc(CCCN3CCN(c4cnc(N5C6CCC5CN(c5cc(-c7ccccc7O)nnc5N)C6)nc4)CC3)cc21` (stereo not drawn) [I-285], the Dmax at SMARCA4, on SMARCA2 [3] and on SMARCA2 [2] was above 90% each time. Besides, the DC50 at SMARCA4, on SMARCA2 [3] and at SMARCA2 [2] was below 100 nM in each case.
On to `Cn1c(=O)n(C2CCC(=O)NC2=O)c2ccc(C3CCC(N4CCC(c5cnc(N6C7CCC6CN(c6cc(-c8ccccc8O)nnc6N)C7)nc5)CC4)CC3)cc21` (stereo not drawn) [I-290], for which the Dmax on SMARCA4, on SMARCA2 [3] and on SMARCA2 [2] was above 90% throughout. Also, the DC50 at SMARCA4, at SMARCA2 [3] and at SMARCA2 [2] was below 100 nM each time.
On to `Cc1ncsc1-c1ccc(CNC(=O)[C@@H]2C[C@@H](O)CN2C(=O)[C@@H](NC(=O)N2CCC(c3cnc(N4C5CCC4CN(c4cc(-c6ccccc6O)nnc4N)C5)nc3)CC2)C(C)(C)C)cc1` [I-448], for which the Dmax at SMARCA4 was above 90%; on SMARCA2 [3], 70 to 90%; on SMARCA2 [2], above 90%. For the same compound, the DC50 is below 100 nM on SMARCA4, 100 to 500 nM at SMARCA2 [3] and 100 to 500 nM on SMARCA2 [2].
`Cc1ncsc1-c1ccc(CNC(=O)[C@@H]2C[C@@H](O)CN2C(=O)[C@@H](NC(=O)CCN2CCC(c3cnc(N4C5CCC4CN(c4cc(-c6ccccc6O)nnc4N)C5)nc3)CC2)C(C)(C)C)cc1` [I-449]: the Dmax at SMARCA4, at SMARCA2 [3] and at SMARCA2 [2] was below 50% in each case. The 50% degradation concentration (DC50) is 100 to 500 nM at SMARCA4, 100 to 500 nM at SMARCA2 [3] and above 1000 nM at SMARCA2 [2].
In the case of `Cc1ncsc1-c1ccc(CNC(=O)[C@@H]2C[C@@H](O)CN2C(=O)[C@@H](NC(=O)CN(C)Cc2ccc(N3CCN(c4cc(-c5ccccc5O)nnc4N)CC3)cc2)C(C)(C)C)cc1` [I-462], the results for the Dmax on SMARCA4, at SMARCA2 [3] and at SMARCA2 [2] were below 50%, 70 to 90% and 70 to 90%, respectively. In addition, the DC50 at SMARCA4 is above 1000 nM; on SMARCA2 [3], 501 to 1000 nM; on SMARCA2 [2], 501 to 1000 nM.
For `Cc1ncsc1-c1ccc(CNC(=O)[C@@H]2C[C@@H](O)CN2C(=O)[C@@H](NC(=O)CN(C)CC#Cc2cnc(N3C4CCC3CN(c3cc(-c5ccccc5O)nnc3N)C4)nc2)C(C)(C)C)cc1` [I-495], the maximal degradation (Dmax) on SMARCA4 was above 90%; on SMARCA2 [3] it was 70 to 90%; on SMARCA2 [2], 70 to 90%. The 50% degradation concentration (DC50) at SMARCA4 is below 100 nM; at SMARCA2 [3], 100 to 500 nM; on SMARCA2 [2], 100 to 500 nM.
As for `Cc1ncsc1-c1ccc(CNC(=O)[C@@H]2C[C@@H](O)CN2C(=O)[C@@H](NC(=O)c2ccc(N3CCC(n4cc(-c5cc(-c6ccccc6O)nnc5N)cn4)CC3)cc2)C(C)(C)C)cc1` [I-515], on SMARCA4, the Dmax was above 90% and the DC50 is below 100 nM. In addition, at SMARCA2 [2], the Dmax was below 50% and the DC50 was above 1000 nM.
In the case of `Cc1ncsc1-c1ccc(CNC(=O)[C@@H]2C[C@@H](O)CN2C(=O)[C@@H](NC(=O)Cc2ccc(N3CCC(n4cc(-c5cc(-c6ccccc6O)nnc5N)cn4)CC3)cc2)C(C)(C)C)cc1` [I-516], on SMARCA4, the Dmax was below 50% and the DC50 was above 1000 nM. At SMARCA2 [2], the Dmax was below 50% and the DC50 was above 1000 nM.
Turning to `Cc1ncsc1-c1ccc(CNC(=O)[C@@H]2C[C@@H](O)CN2C(=O)[C@@H](NC(=O)C2(F)CC2)C2CCC(N(C)CCCc3cnc(N4C5CCC4CN(c4cc(-c6ccccc6O)nnc4N)C5)nc3)CC2)cc1` (stereo partly drawn) [I-518], at SMARCA4, the Dmax was in the range of 50 to 70% and the DC50 was in the range of 100 to 500 nM. Besides, on SMARCA2 [2], the Dmax was below 50% and the DC50 is above 1000 nM.
Turning to `Cc1cc(-c2scnc2C)ccc1CNC(=O)[C@@H]1C[C@@H](O)CN1C(=O)[C@@H](NC(=O)CN1CCC(c2cnc(N3C4CCC3CN(c3cc(-c5ccccc5O)nnc3N)C4)nc2)CC1)C(C)(C)C` [I-521], on SMARCA4, the Dmax was above 90% and the DC50 was 100 to 500 nM. Also, at SMARCA2 [2], the Dmax is above 90% and the half-maximal degradation concentration (DC50) lay in the range of 100 to 500 nM.
On to `Nc1nnc(-c2ccccc2O)cc1N1CC2CCC(C1)N2c1ncc(C2CCN(CCCNC(=O)COc3ccc4c(c3)CCCN4C(=O)CCl)CC2)cn1` [I-523, N-[3-[4-[2-[3-[3-amino-6-(2-hydroxyphenyl)pyridazin-4-yl]-3,8-diazabicyclo[3.2.1]octan-8-yl]pyrimidin-5-yl]-1-piperidyl]propyl]-2-[[1-(2-chloroacetyl)-3,4-dihydro-2H-quinolin-6-yl]oxy]acetamide], for which, on SMARCA4, the Dmax was above 90% and the DC50 is above 1000 nM. For the same compound, on SMARCA2 [2], the Dmax is below 50% and the DC50 is above 1000 nM.
For the compound `Nc1nnc(-c2ccccc2O)cc1N1CC2CCC(C1)N2c1ncc(C2CCN(CCCCCNC(=O)COc3ccc4c(c3)CCCN4C(=O)CCl)CC2)cn1` [I-524], the Dmax was 70 to 90% on SMARCA4 and below 50% at SMARCA2 [2]. In addition, the DC50 at SMARCA4 and at SMARCA2 [2] was above 1000 nM throughout.
On to `Nc1nnc(-c2ccccc2O)cc1N1CC2CCC(C1)N2c1ncc(C2CCN(CCCCCCCCCNC(=O)COc3ccc4c(c3)CCCN4C(=O)CCl)CC2)cn1` [I-525], for which, on SMARCA4, the Dmax was in the range of 50 to 70% and the DC50 is above 1000 nM. On SMARCA2 [2], the Dmax was below 50% and the DC50 was above 1000 nM.
For the compound `NCC#Cc1nccc(N2C3CCC2CN(c2cc(-c4ccccc4O)nnc2N)C3)n1` [I-534, 2-[6-amino-5-[8-[2-(3-aminoprop-1-ynyl)pyrimidin-4-yl]-3,8-diazabicyclo[3.2.1]octan-3-yl]pyridazin-3-yl]phenol], the Dmax is 70 to 90% on SMARCA4, above 90% at SMARCA2 [3] and below 50% at SMARCA2 [2]. Besides, the DC50 was above 1000 nM at SMARCA4, 100 to 500 nM at SMARCA2 [3] and above 1000 nM on SMARCA2 [2].
`CC(C)(C)[C@H](NC(=O)[C@H]1CC2(C1)C[C@H](N1CCC(c3cnc(N4C5CCC4CN(c4cc(-c6ccccc6O)nnc4N)C5)nc3)CC1)C2)C(=O)N1C[C@H](O)C[C@H]1C(=O)NOc1ccc(-c2ccccc2F)cc1` (stereo partly drawn) [I-537, (2S,4R)-1-[(2S)-2-[[2-[4-[2-[3-[3-amino-6-(2-hydroxyphenyl)pyridazin-4-yl]-3,8-diazabicyclo[3.2.1]octan-8-yl]pyrimidin-5-yl]-1-piperidyl]spiro[3.3]heptane-6-carbonyl]amino]-3,3-dimethyl-butanoyl]-N-[4-(2-fluorophenyl)phenoxy]-4-hydroxy-pyrrolidine-2-carboxamide]: the DC50 on SMARCA2 [1] and on SMARCA2 [2] was above 1000 nM each time.
